# Tested on: immobilized GST-tagged bait protein domains
# Assay: ProP-PD phage selections (HD2 P8, sublibraries, HD2 P3, HD1 P8) with NGS and confidence level
# Format: binding, human
# Details: for HD confidence / HD count proportions / HD mean counts: library HD
# [1] = bait CALM1_EF-hand__P0DP23_2_149, library HD2, benchmarking set of validated motif instances, TRUE = motif instance recovered in the ProP-PD selection
# [2] = HD2 library, bait SUMO1_SUMO__P63165_1_101, known motif instance of the benchmarking set found (TRUE) or not found (FALSE) among selected peptides
# [3] = HD2 library, bait TSG101_UEV__Q99816_1_145, known motif instance of the benchmarking set found (TRUE) or not found (FALSE) among selected peptides
# [4] = bait OXSR1___O95747_434_527, HD2 P8 cytoplasm sublibrary, confidence level (4 = High, 2-3 = Medium, 1 = Low)
# [5] = bait NEDD4_WW_4_P46934_890_928, HD2 library, whether the validated benchmark motif instance was recovered in the ProP-PD selection (TRUE/FALSE)
# [6] = library HD2, bait YAP1_WW_1_P46937_169_207, validated benchmark motif instance, in_library_check TRUE, TRUE/FALSE = instance recovered in ProP-PD selection
# [7] = bait CRK_SH3_1_P46108_124_198, HD2 P3 library, confidence level (4 = High, 2-3 = Medium, 1 = Low)
# [8] = bait CRK_SH3_1_P46108_124_198, HD2 P3 library, mean NGS counts over replicate selections
# [9] = bait CRK_SH3_1_P46108_124_198, HD2 P3 library, mean proportion of NGS counts
# [10] = bait PABP-B_PABP__P11940_544_623, HD2 library, confidence level (1-4) of best matching selected peptide
# [11] = bait PABP-B_PABP__P11940_544_623, HD2 library, specificity score of best matching selected peptide
# [12] = bait PABP-B_PABP__P11940_544_623, HD2 library, whether the validated benchmark motif instance was recovered in the ProP-PD selection (TRUE/FALSE)
# [13] = bait MAP1LC3A_ATG8 (Q9H492 2-121), HD2 library, benchmark motif instance recovered in the ProP-PD selection (TRUE/FALSE)
# [14] = bait MAP1LC3A_ATG8 (Q9H492 2-121), HD2 library, confidence level (1-4) of best matching peptide
# [15] = bait MAP1LC3A_ATG8 (Q9H492 2-121), HD2 library, specificity score of best matching peptide
# [16] = bait SUMO1_SUMO__P63165_1_101, HD2 library, confidence level (1-4) of best matching selected peptide
# [17] = bait SUMO1_SUMO__P63165_1_101, HD2 library, specificity score of best matching selected peptide
# [18] = bait SUMO1_SUMO__P63165_1_101, HD2 library, whether the validated benchmark motif instance was recovered in the ProP-PD selection (TRUE/FALSE)
# [19] = library HD2, bait EPS15_EH__P42566_121_215, whether the validated benchmark motif instance was recovered in the ProP-PD selection (TRUE/FALSE)
# [20] = HD2 library, bait TNKS_TANK-peptide-bind__O95271_174_649, known motif instance of the benchmarking set found (TRUE) or not found (FALSE) among selected peptides
# [21] = library HD2, bait VASP_EVH1__P50552_1_114, validated benchmark motif instance, in_library_check TRUE, TRUE/FALSE = instance recovered in ProP-PD selection
# [22] = bait MAP1LC3B_ATG8 (Q9GZQ8 2-119), HD2 library, benchmark motif instance recovered in the ProP-PD selection (TRUE/FALSE)
substance,measurement,setting,value
"FDIDMDAPETERAAVAIQSQFRKFQKKKAGSQS,DMDAPETERAAVAIQSQFRKFQKKKAGSQS---- [PCP4]",motif_found,[1],FALSE
ERSGVIREVMIIEVSSSEEE,motif_found,[2],FALSE
EEEMEVPVLPKISLPI,HD2 confidence,"bait ANKRA2_Ank__Q9H9E1_142_313, HD2 P8 selection, confidence level -4 to 4: 4 = High, 3 or 2 = Medium, 1 = Low, 0 = Filtered/Noise",2
EATNTTSEPSAPSQDLLDLS,motif_found,[3],FALSE
TGQPTKVGRFQVTTTA,HD2_cytoplasm confidence,[4],4
TQVPGTPPPKYNTLRLER,motif_found,[5],FALSE
same,motif_found,[6],FALSE
QQVPAPPLPAKKNLPT,p3_HD2 confidence,[7],4
same,p3_HD2 mean counts,[8],120.7
same,p3_HD2 count proportions,[9],0.00436
ILSKSNLNPDAKEFIP,best_confidence,[10],2
same,best_specificity,[11],1
same,motif_found,[12],TRUE
THHNQASDIIVISSEDSEGSTDVDE,motif_found,[2],FALSE
SPALTAPPPAYATLGPRP,motif_found,[5],FALSE
same,motif_found,[6],FALSE
MDDLDALLADLESTTSHIS,motif_found,"bait PTK2_Focal-AT__Q05397_891_1050, HD2 library, whether the validated benchmark motif instance was recovered in the ProP-PD selection (TRUE/FALSE)",FALSE
WVELPMNSSNGNDNGN,motif_found,[13],TRUE
same,best_confidence,[14],2
same,best_specificity,[15],1
DPSMDKAAVKIQAAFKGYKVRKEMKQQEGPM [OBSCN],motif_found,[1],FALSE
YRLARQRIIQFQARCRAYLVRKAFRHRLWAV [MYO7A 817-833],motif_found,"HD2 library, bait CALM1_EF-hand__P0DP23_2_149, benchmark motif instance, in_library_check FALSE, in_library_coverage 0",FALSE
"TDEVPVPPPVPPRRRPESAP,DEVPVPPPVPPRRRPESAPA [SOS1]",motif_found,"bait CRK_SH3_1_P46108_124_198, library HD2, benchmarking set of validated motif instances, TRUE = motif instance recovered in the ProP-PD selection",FALSE
VPNVHAAEFVPSFLRG,best_confidence,[10],4
same,best_specificity,[11],1
same,motif_found,[12],TRUE
NKKVEVIDLTIDSSSD,best_confidence,[16],4
same,best_specificity,[17],1
same,motif_found,[18],TRUE
SDRTAAPGNPFRAKSEESE,motif_found,[19],FALSE
PGPPAPNTNPFLL------,motif_found,[19],FALSE
SILEQTDMEAVEALVCMSSWGQRS,motif_found,"bait SIN3A_PAH__Q96ST3_295_383, HD2 library, whether the validated benchmark motif instance was recovered in the ProP-PD selection (TRUE/FALSE)",FALSE
ELDKEIKNSFNPEAQVFMPISDPASSV,motif_found,[12],FALSE
DEIVDLTCESLEPVVV,best_confidence,[16],2
same,best_specificity,[17],1
same,motif_found,[18],TRUE
SNTNRFQVSVINENHE,HD2_cytoplasm confidence,[4],4
RHLPPPLPSKTPPPPP,p3_HD2 confidence,[7],3
same,p3_HD2 mean counts,[8],27.0
same,p3_HD2 count proportions,[9],0.0009618
RGRGDGQE,motif_found,[20],FALSE
NDIDEVIIPTAPLYKQILNL [TSG101 319-324],motif_found,"HD2 library, bait TSG101_UEV__Q99816_1_145, benchmark motif instance, in_library_check FALSE, in_library_coverage 0",FALSE
PPPPPEDFPLPPPPLAGDG,motif_found,[21],FALSE
VSSAAPSPRGCADGRDADPTEE,motif_found,[20],FALSE
SVVSPPELPPRNIPLT,HD confidence,bait CRK_SH3_1_P46108_124_198,2
same,HD2 confidence,"bait CRK_SH3_1_P46108_124_198, library HD2 P8",4
same,HD2_cytoplasm confidence,"bait CRK_SH3_1_P46108_124_198, library HD2 P8 cytoplasm",4
same,HD2_nc confidence,"bait CRK_SH3_1_P46108_124_198, library HD2 P8 nucleocytoplasmic",2
same,HD2_nc count proportions,"bait CRK_SH3_1_P46108_124_198, library HD2 P8 nucleocytoplasmic, mean normalised NGS counts",6.106e-06
same,HD2_nc mean counts,"bait CRK_SH3_1_P46108_124_198, library HD2 P8 nucleocytoplasmic, mean raw NGS counts, all selections",1.0
same,HD count proportions,"bait CRK_SH3_1_P46108_124_198, mean normalised NGS counts",0.0001782
same,HD mean counts,"bait CRK_SH3_1_P46108_124_198, mean raw NGS counts, all selections",3.0
AAQATGTTNPFLL------,motif_found,[19],FALSE
PAPALPPKPPKPTTVA,best_specificity,"bait CRK_SH3_1_P46108_124_198, library HD2, best matching peptide",1
same,best_confidence,"bait CRK_SH3_1_P46108_124_198, library HD2, confidence level of best matching peptide (4 = High, 2 or 3 = Medium, 1 = Low)",2
PPGPPPPYHAHAHLHH,HD confidence,bait YAP1_WW_1_P46937_169_207,3
same,p3_HD2 confidence,"bait YAP1_WW_1_P46937_169_207, library HD2 P3",2
same,p3_HD2 count proportions,"bait YAP1_WW_1_P46937_169_207, library HD2 P3, mean normalised NGS counts",0.001797
same,p3_HD2 mean counts,"bait YAP1_WW_1_P46937_169_207, library HD2 P3, mean raw NGS counts, all selections",44.67
same,HD2 confidence,"bait YAP1_WW_1_P46937_169_207, library HD2 P8",4
same,HD2_nucleus confidence,"bait YAP1_WW_1_P46937_169_207, library HD2 P8 nucleus",4
same,HD count proportions,"bait YAP1_WW_1_P46937_169_207, mean normalised NGS counts",0.02186
same,HD mean counts,"bait YAP1_WW_1_P46937_169_207, mean raw NGS counts, all selections",187.3
VGDTSRGQVIIISDSDDDDDERILSLEK,motif_found,[2],FALSE
NGAEDDDDDEFGEFGGFSEVS [AFTPH],motif_found,"bait AP2B1_adaptin__P63010_700_937, library HD2, benchmarking set of validated motif instances, TRUE = motif instance recovered in the ProP-PD selection",FALSE
SVEFLDLAHSSESQETISS,motif_found,"library HD2, bait USP7_MATH-TRAF__Q93009_53_206, validated benchmark motif instance, in_library_check TRUE, TRUE/FALSE = instance recovered in ProP-PD selection",FALSE
-MNSPGGRGKKKGSGGASNPV,motif_found,"bait KPNA4_Arm (O00629 68-487), HD2 library, benchmark motif instance recovered in the ProP-PD selection (TRUE/FALSE)",FALSE
LFCQNLPPPLPPKKYA,p3_HD2 confidence,[7],3
same,p3_HD2 mean counts,[8],10444.0
same,p3_HD2 count proportions,[9],0.2023
GSSGNTHDDFVMIDFKPAFS,motif_found,[22],FALSE
LYNFPQSPPAQYSPMH,HD2_nc confidence,"bait CEP55_EABR__Q53EZ4_160_217, HD2 P8 nucleocytoplasmic sublibrary, confidence level (4 = High, 2-3 = Medium, 1 = Low)",4
same,HD2_nc mean counts,"bait CEP55_EABR__Q53EZ4_160_217, HD2 P8 nucleocytoplasmic sublibrary, mean NGS counts over replicate selections",101.3
same,HD2_nc count proportions,"bait CEP55_EABR__Q53EZ4_160_217, HD2 P8 nucleocytoplasmic sublibrary, mean proportion of NGS counts",0.001637
VDLTHNDSVVIVDERRRPRRN,motif_found,[2],FALSE
PPAEEPEARPDGEGSPGKARPG,motif_found,[20],FALSE
PAPAPLPPPSAPSLQPSRKL,motif_found,[3],FALSE
DGGTTFEHLWSSLEPD,motif_found,"bait MDM2_p53-binding-domain (Q00987 17-125), HD2 library, benchmark motif instance recovered in the ProP-PD selection (TRUE/FALSE)",FALSE
RLRHALWPSLPDLHRVLGQYLRDT,motif_found,"library HD2, bait ANKRA2_Ank__Q9H9E1_142_313, motif instance NOT in library (in_library_check FALSE, in_library_coverage 0)",FALSE
GAQASVGSRSEGEGEAASADDG,motif_found,[20],FALSE
VQPKQDAFANFANFSK,HD confidence,bait AP2B1_adaptin__P63010_700_937,2
same,HD count proportions,"bait AP2B1_adaptin__P63010_700_937, mean normalised NGS counts",0.0004926
same,HD mean counts,"bait AP2B1_adaptin__P63010_700_937, mean raw NGS counts, all selections",1.25
QSGSGGIFPPPPDDDIYDG,motif_found,[21],FALSE
LNKYQGFIFDIVTK [SCN5A],motif_found,[1],FALSE
GTNPTLVSVPNPVFGSDTFCEP,motif_found,"HD2 library, bait TLN1_PTB__Q9Y490_309_401, known motif instance of the benchmarking set found (TRUE) or not found (FALSE) among selected peptides",FALSE
APPVSGTFKFNTDAAEFIPQEKKNSGL,motif_found,[12],FALSE
KKRFSFKKSFKLSGFSFK [MARCKS],motif_found,[1],FALSE
WTHLSSKEVDPSTGEL,motif_found,[13],TRUE
same,best_confidence,[14],4
same,best_specificity,[15],1
same,motif_found,[22],TRUE
same,best_confidence,"bait MAP1LC3B_ATG8 (Q9GZQ8 2-119), HD2 library, confidence level (1-4) of best matching peptide",3
same,best_specificity,"bait MAP1LC3B_ATG8 (Q9GZQ8 2-119), HD2 library, specificity score of best matching peptide",1

# From publication PMC8769072, “Proteome‐scale mapping of binding sites in the unstructured regions of the human proteome” (Molecular Systems Biology, 2022)
